Data on one molecule can be found in US20120264796A1, “METHODS FOR MODULATING CIRCADIAN RHYTHMS” (THE SALK INSTITUTE FOR BIOLOGICAL STUDIES, priority 2009, published 2012).

Type in all cases: cell-based
Test [1] deals with wild type (AMPK+/+) mouse embryonic fibroblasts. The experiment in a line: Circadian reverbα and dbp expression by quantitative PCR in serum-stimulated wild type fibroblasts. The following applies: 25 mM glucose supplemented with 1 mM AICAR, after 2 hour 50% horse serum, compared with 0.5 mM glucose. The method, then:
(§1) (A) Unsynchronized paired wild type (AMPK^+/+) or ampkα1^−/−; ampkα2^−/− (AMPK−/−) mouse embryonic fibroblasts were stimulated by 2 hour exposure to 50% horse serum followed by transfer to media containing 25 mM glucose, 0.5 mM glucose or 25 mM glucose supplemented with 1 mM AICAR. Quantitative PCR analysis was performed using cDNA samples collected at the indicated times following stimulation. Data represent the mean of two independent experiments, each analyzed in triplicate. (B) Fibroblasts stably expressing Bmal1-luciferase were cultured in media containing the indicated amounts of glucose with or without 2 mM AICAR. Typical results of continuous monitoring of luciferase activity are shown. (C and D) Quantitation of the circadian period (C) and amplitude (D) of Bmal1-driven luciferase activity from experiments performed as described in (B). Data in (C) and (D) represent the mean±standard deviation for four samples per condition. […]
(§2) FIG. 4A-B show disruption of AMPK alters circadian rhythms in MEFs. […] Quantitative PCR analysis was performed using cDNA samples prepared from lysates collected at the indicated times following stimulation. Data represent the mean±standard deviation of two or three independent experiments each analyzed in triplicate. […]

Test [2] deals with Fibroblasts stably expressing Bmal1-luciferase. Description: Continuous monitoring of Bmal1-driven luciferase activity in fibroblasts. To be noted: media with 2 mM AICAR vs 25 mM glucose. Here is the method:
(A) Unsynchronized paired wild type (AMPK^+/+) or ampkα1^−/−; ampkα2^−/− (AMPK−/−) mouse embryonic fibroblasts were stimulated by 2 hour exposure to 50% horse serum followed by transfer to media containing 25 mM glucose, 0.5 mM glucose or 25 mM glucose supplemented with 1 mM AICAR. Quantitative PCR analysis was performed using cDNA samples collected at the indicated times following stimulation. Data represent the mean of two independent experiments, each analyzed in triplicate. (B) Fibroblasts stably expressing Bmal1-luciferase were cultured in media containing the indicated amounts of glucose with or without 2 mM AICAR. Typical results of continuous monitoring of luciferase activity are shown. (C and D) Quantitation of the circadian period (C) and amplitude (D) of Bmal1-driven luciferase activity from experiments performed as described in (B). Data in (C) and (D) represent the mean±standard deviation for four samples per condition. ANOVA analysis indicated a significant difference between categories. ** P<0.01 vs. samples cultured in 25 mM glucose in Scheffe's post-hoc analysis.
The Bmal1 promoter is repressed by REVERBα. Therefore, the effects of reducing glucose availability on circadian rhythms was examined using fibroblasts stably expressing luciferase under the control of a Bmal1 promoter. […]

Test [3] deals with ampkα1−/−; ampkα2−/− (AMPK−/−) mouse embryonic fibroblasts. Description: Circadian reverbα and dbp expression by quantitative PCR in serum-stimulated MEFs lacking AMPK. The following applies: 25 mM glucose supplemented with 1 mM AICAR. The method, then: as §1, §2

In the case of `NC(=O)c1ncn([C@@H]2O[C@H](CO)[C@@H](O)[C@H]2O)c1N` [AICAR, 5-amino-4-imidazolecarboxamide riboside], in test [1], the “amplitude of circadian reverbα and dbp expression” value is recorded as “mimicked the effects of glucose deprivation”. For the same molecule, in test [2], the “amplitude of Bmal1-luciferase expression” value is “decreased the amplitude of Bmal1-luciferase expression”. For the same molecule, the “expression of reverbα and dbp” value in test [3] is “neither glucose deprivation nor AICAR treatment affected the expression of reverbα and dbp”.
